In patent US4187373A, “Novel dihydrobenzanthracene derivatives” (American Cyanamid Company, priority 1978, dated 1980):
Several values for one entry are separate records, joined by “and”; a condition that tells them apart may be missing. Identical values can stand only once. Counter-ions that a name gives are not always drawn.

Assays:
[1] = system: melanotic melanoma B16 tumor; test: Melanotic Melanoma B16; assay type: in vivo, C57BC/6 mice
Method: The animals used are C57BC/6 mice, all of the same sex, weighing a minimum of 17 g. and all within a 3 g. weight range. There are normally 10 animals per test group. A one-gram portion of melanotic melanoma B16 tumor is homogenized in 10 ml. of cold balanced salt solution and a 0.5 ml. aliquot of the homogenate is implanted intraperitoneally into each of the test mice. The test compounds are administered intraperitoneally on days one through 9 (relative to tumor inoculation) at various doses. The animals are weighed and survivors are recorded on a regular basis for 60 days. The median survival time and the ratio of survival time for treated (T)/control (C) animals are calculated. The positive control compound is 5-fluorouracil given as a 20 mg./kg. injection. The results of this test with a representative compound of the present invention appear in Table III below. The criterion for efficacy is T/C×100≥125%.

[2] = system: lymphocytic leukemia P388; test: Lymphocytic Leukemia P388 Test; assay type: in vivo, mice
Method: The animals used are mice all of one sex, weighing a minimum of 17 g. and all within a 3 gram weight range. There are 5 or 6 animals per test group. The tumor transplant is by intraperitoneal injection of 0.1 ml. or 0.5 ml. of dilute ascitic fluid containing 10^6 cells of lymphocytic leukemia P388. The test compounds are administered intraperitoneally on days one, 5 and 9 (relative to tumor inoculation) at various doses. The animals are weighed and survivors are recorded on a regular basis for 30 days. The median survival time and the ratio of survival time for treated (T)/control (C) animals are calculated. […] The results of this test with representative compounds of the present invention appear in Table II below. The criterion for efficacy is T/C×100≥125%.

Enterococcus, SM 77-15 = test: antibacterial activity in vitro, agar-dilution streak-plate technique; assay type: cell-based; settings: SM7715, 37° C. for 18 hours, read-out: minimal inhibitory concentration (MIC)
Method: (§1) The antibacterial spectrum in terms of the concentration required to inhibit the growth of various typical bacteria was determined in a standard manner by the agar-dilution streak-plate technique. A Steers multiple inocula replicator was used with incubation at 37° C. for 18 hours in Mueller-Ninton agar. The results for 7,12-bis-(2-imidazolin-2-ylhydrazone)benz[a]anthracene-7,12-dicarboxaldehyde dihydrochloride, a typical compound of this invention, are set forth in Table I as the minimal inhibitory concentration (MIC) in micrograms per milliliter.

[3] = system: Staphylococcus aureus, Q 74-11; test: as above; assay type: cell-based; settings: Q7411, 37° C. for 18 hours, read-out: minimal inhibitory concentration (MIC)
Method: as §1

[4] = system: Staphylococcus aureus, St. Paul (NYC 78-1); test: as above; assay type: cell-based; settings: 37° C. for 18 hours, read-out: minimal inhibitory concentration (MIC)
Method: as §1

[5] = system: Staphylococcus aureus, OSU 75-2; test: as above; assay type: cell-based; settings: OSU752, 37° C. for 18 hours, read-out: minimal inhibitory concentration (MIC)
Method: as §1

[6] = B16, positive control, dose 20 mg./kg.
[7] = P388, positive control, dose 40 mg./kg.
[8] = P388, positive control, dose 60 mg./kg.
[9] = P388, dose 0.78 mg./kg. intraperitoneally on days one, 5 and 9
[10] = P388, dose 1.56 mg./kg. intraperitoneally on days one, 5 and 9, dihydrochloride
[11] = P388, dose 3.12 mg./kg. intraperitoneally on days one, 5 and 9, dihydrochloride
[12] = P388, dose 6.25 mg./kg. intraperitoneally on days one, 5 and 9, dihydrochloride
[13] = P388, dose 12.5 mg./kg. intraperitoneally on days one, 5 and 9, dihydrochloride
[14] = P388, dose 25 mg./kg. intraperitoneally on days one, 5 and 9, dihydrochloride
[15] = B16, dose 0.2 mg./kg. intraperitoneally on days one through 9
[16] = B16, dose 0.5 mg./kg. intraperitoneally on days one through 9
[17] = B16, dose 1.5 mg./kg. intraperitoneally on days one through 9
[18] = B16, dose 3 mg./kg. intraperitoneally on days one through 9
[19] = P388, dose 1.56 mg./kg. intraperitoneally on days one, 5 and 9
[20] = P388, dose 3.12 mg./kg. intraperitoneally on days one, 5 and 9
[21] = P388, dose 6.25 mg./kg. intraperitoneally on days one, 5 and 9
[22] = P388, dose 12.5 mg./kg. intraperitoneally on days one, 5 and 9
[23] = P388, dose 25 mg./kg. intraperitoneally on days one, 5 and 9

Row | SMILES | Median Survival [2, 9] | T/C × 100 (Percent) [2, 9] | Median Survival [2, 19] | T/C × 100 (Percent) [2, 19] | Median Survival [2, 20] | T/C × 100 (Percent) [2, 20] | Median Survival [2, 21] | T/C × 100 (Percent) [2, 21] | Median Survival [2, 22] | T/C × 100 (Percent) [2, 22] | further results
1 | O=c1[nH]cc(F)c(=O)[nH]1 [5-Fluorouracil, 5-fluorouracil, reference compound] | – | – | – | – | – | – | – | – | – | – | Median Survival [1, 6]: 25.5 days; T/C × 100 (Percent) [1, 6]: 155%; Median Survival [2, 7]: 18 days and 18.5 days; T/C × 100 (Percent) [2, 7]: 164% and 154%; Median Survival [2, 8]: 12.5 days and 20.0 days; T/C × 100 (Percent) [2, 8]: 109% and 200%
2 | C(=NNC1=NCCN1)C1c2ccccc2C(C=NNC2=NCCN2)c2c1ccc1ccccc21 (stereo not drawn) [Bis(2-imidazolin-2-ylhydrazone) of 7,12-dihydrobenz[a]anthracene-7,12-dicarboxaldehyde dihydrochloride] | 13.0 days | 130% | – | – | – | – | – | – | – | – | Median Survival [2, 10]: 13.5 days; T/C × 100 (Percent) [2, 10]: 135%; Median Survival [2, 11]: 16.5 days; T/C × 100 (Percent) [2, 11]: 165%; Median Survival [2, 12]: 16.5 days; T/C × 100 (Percent) [2, 12]: 165%; Median Survival [2, 13]: 17.5 days; T/C × 100 (Percent) [2, 13]: 175%; Median Survival [2, 14]: 17 days; T/C × 100 (Percent) [2, 14]: 170%
3 | C(=NNC1=NCCN1)c1c2ccccc2c(C=NNC2=NCCN2)c2c1ccc1ccccc12 [Bis(2-imidazolin-2-ylhydrazone) of benz[a]anthracene-7,12-dicarboxaldehyde] | – | – | – | – | – | – | – | – | – | – | Median Survival [1, 15]: 22.0 days; T/C × 100 (Percent) [1, 15]: 133%; Median Survival [1, 16]: 25.0 days; T/C × 100 (Percent) [1, 16]: 152%; Median Survival [1, 17]: 30.5 days; T/C × 100 (Percent) [1, 17]: 185%; Median Survival [1, 18]: 31.0 days; T/C × 100 (Percent) [1, 18]: 188%
4 | C(=NNC1=NCCN1)c1c2ccccc2c(C=NNC2=NCCN2)c2cc3ccccc3cc12 [Bis(2-imidazolin-2-ylhydrazone)-5,12-benz[b]anthracene dicarboxaldehyde dihydrochloride] | 15.0 days | 130% | 15.5 days | 135% | 18.0 days | 157% | 18.5 days | 161% | 22.0 days | 191% | –
5 | C(=NNC1=NCCN1)c1c2ccccc2c(C=NNC2=NCCN2)c2c1ccc1ccccc12 [Bis(2-imidazolin-2-ylhydrazone)-7,12-benz[a]anthracene dicarboxaldehyde dihydrochloride] | 15.0 days | 150% | 16.0 days | 160% | 17.5 days | 175% | 19.0 days | 190% | 19.0 days | 190% | MIC (Enterococcus, SM 77-15): 8 µg/mL; MIC [3]: 8 µg/mL; MIC [4]: 8 µg/mL; MIC [5]: 16 µg/mL
6 | C(=NNC1=NCCN1)C1c2ccccc2C(C=NNC2=NCCN2)c2c1ccc1ccccc21 (stereo not drawn) [Bis(2-imidazolin-2-ylhydrazone)-7,12-dihydro-benz[a]anthracene dicarboxaldehyde] | – | – | 14.5 days | 132% | 14 days | 127% | 16 days | 145% | 18 days | 164% | Median Survival [2, 23]: 20 days; T/C × 100 (Percent) [2, 23]: 182%
